Test results: US11179438B1, “Chicken cathelicidins as a cancer therapy” (King Abdulaziz University, priority 2021, dated 2021)
Read-outs that look alike come from different tables or passages of the source. Ends that are not written are not given here.

Legend:
[1] = test system: human colon cancer cell line (HCT116); experiment: Cell viability assay (CCK-8), HCT116; format: cell-based; details: 72 h
Procedure: (§1) The breast (MCF-7) and colon cancer (HCT116) cell lines were purchased from the American Type Culture Collection (Manassas, Va., USA) and maintained at 37° C. in a 1:1 mixture of Dulbecco's modified Eagle's medium DMEM high glucose (4.5 g/L) supplemented with 10% FBS in Corning®T75 flasks containing 1.2 g/l sodium bicarbonate (Sigma-Aldrich, St. Louis, Mo., USA), 2.5 mM L-glutamine (Invitrogen Life Technologies), 15 mM HEPES, and 0.5 mM sodium pyruvate supplemented with 400 ng/ml hydrocortisone (Sigma-Aldrich) and 10% fetal bovine serum (PAA Laboratories, Pasching, Austria) in a humidity incubator with 5% CO2 and 95% air. The culture medium was refreshed every 2-3 days for a period of 5-7 days to allow for recovery from cryopreservation and for confluency to be reached. For cell subculturing, the cells were digested with 0.25% trypsin and 0.03% EDTA solution (Invitrogen Life Technologies). Upon reaching 90% confluency, cell numbers were counted. The density of cells was 5 λ103 cells/cm^2. After that, the MCF-7 cells were seeded into three 96 well plates and treated with three chicken cathelicidins peptides for three period of incubations (24 h-48 h-72 h) (Li et al., 2014).
(§2) To assess the altered cell viability, Cell Counting Kit-8 (CCK-8) assay (Dojindo Laboratories, Kumamoto, Japan) was performed. Briefly, the cells were seeded in 96-well plates at 5×10^3 cells/well containing 180 μl of medium and cultured for up to 72 h. At the end of each experiment, 5 μl of CCk-8 solution (5 mg/ml) was added into each well, and the cells were incubated for 2 h at 37° C. The optical density value was measured by using BioTek microplate reader (Dynatech Laboratories Inc., Chantilly, Va., USA) at 450 nm. The median inhibition concentration (IC50) values were calculated using the probity model, and the inhibition rate of cell proliferation was calculated as: inhibition rate (%)=1−A450 (test)/A450 (control)×100%. Data were calculated from three independent experiments, each performed in triplicate (Li et al., 2014).

[2] = test system: Caspase-3 gene; experiment: Expression of caspase-3 gene in MCF-7 cells (RT-PCR); format: cell-based, human
Procedure: (§3) Total RNA was isolated from MCF-7 cells after chicken cathelicidins treatment using EZ RNA Clean Up Plus DNase Kit (EZ BioResearch, St Louis, Mo., USA)) following the manufacturer's instructions. RT-PCR was performed by using 1 μg of total RNA samples in the Access RT-PCR System (Bioneer Corporation Co., Ltd, South Korea) under the following conditions: first-strand DNA was synthesized with 12 cycles at 37° C. for 10 sec, 48° C. for 4 min and 60° C. for 30 sec and finally, heat inactivation at 95° C. for 5 mins then denatured at 94° C. for 5 min for the first cycle but for 30 sec for the additional 35 cycles; annealing according to Table 2 for 30 sec and extension at 72° C. for 2 min; and a final extension at 72° C. for 10 min. The PCR products were then subjected to electrophoresis in a 1.2% agarose gel and stained with ethidium bromide.
(§4) For RT-qPCR, cDNA was synthesized by using 0.5 μg of total RNA with a SuperScriptIII® Cells Direct cDNA Synthesis kit (Bioneer, Inc, Daejeon, Republic of Korea). The levels of IL-18, cyclin D1, cyclin A1, caspase-3 and 7 mRNA were amplified in triplicate using the SYBR-Green® Real-time PCR master mix (Biotool LLC, Houston, Tex., USA) on a LightCycler®480 Real-Time PCR system (Roche, Basel, Switzerland). […] The relative levels of gene expression were quantified by using the comparative CT method of ^−ΔΔCt (Livak and Schmittgen, 2001).

[3] = test system: Caspase-7 gene; experiment: Expression of caspase-7 gene in MCF-7 cells (RT-PCR); format: cell-based, human
Procedure: as §3, §4

[4] = test system: breast cancer cells (MCF-7); experiment: Cell viability assay (CCK-8), MCF-7; format: cell-based, human; details: 72 h
Procedure: as §1, §2

[5] = test system: breast (MCF-7) and colon cancer (HCT116) cell lines; format: cell-based, human; details: for decline in the cell growth / survival rate: 48 h; for decline in the cell growth: 40 μg/ml, both cell lines; for growth: 72 h incubation, high concentration for cathelicidin-2 and -3, breast and colon cancer cell lines; for survival rate: cell line not stated
Procedure: as §1, §2

[6] = moderate concentration (20 μg/ml)

Compound: RVKRFWPLVPVAINTVAAGINLYKAIRRK [Cathelicidin-3]
- development rate ([1]; low concentration): 65%
- development rate [1, 6]: 43.5%
- caspase-3 gene expression relative to untreated cells [2]: two times greater
- caspase-7 gene expression relative to untreated cells [3]: two-fold
- development rate ([4]; low concentration): 73%
- development rate [4, 6]: 73%
- decline in the cell growth [5]: about 7%
- growth [5]: 16%

Compound: RFGRFLRKIRRFRPKVTITIQGSARF [Cathelicidin-2]
- development rate ([1]; low concentration): 61.3%
- development rate [1, 6]: 24%
- caspase-3 gene expression relative to untreated cells [2]: two times greater
- caspase-7 gene expression relative to untreated cells [3]: two-fold
- development rate ([4]; low concentration): 72%
- development rate [4, 6]: 44%
- decline in the cell growth [5]: 10%
- growth [5]: 7%

Compound: CC[C@H](C)[C@H](NC(=O)[C@H](CCCCN)NC(=O)[C@H](CCC(=O)O)NC(=O)[C@H](CCCCN)NC(=O)[C@H](CO)NC(=O)[C@H](CCCCN)NC(=O)[C@H](CCCNC(=N)N)NC(=O)[C@H](Cc1ccccc1)NC(=O)[C@H](Cc1ccccc1)NC(=O)[C@H](CC(=O)O)NC(=O)CNC(=O)[C@H](CC(C)C)NC(=O)[C@@H](N)CC(C)C)C(=O)NCC(=O)N[C@@H](CCCCN)C(=O)N[C@@H](CCC(=O)O)C(=O)N[C@@H](Cc1ccccc1)C(=O)N[C@@H](CCCCN)C(=O)N[C@@H](CCCNC(=N)N)C(=O)N[C@H](C(=O)N[C@H](C(=O)N[C@@H](CCC(N)=O)C(=O)N[C@@H](CCCNC(=N)N)C(=O)N[C@H](C(=O)N[C@@H](CCCCN)C(=O)N[C@@H](CC(=O)O)C(=O)N[C@@H](Cc1ccccc1)C(=O)N[C@@H](CC(C)C)C(=O)N[C@@H](CCCNC(=N)N)C(=O)N[C@@H](CC(N)=O)C(=O)N[C@@H](CC(C)C)C(=O)N[C@H](C(=O)N1CCC[C@H]1C(=O)N[C@@H](CCCNC(=N)N)C(=O)N[C@H](C(=O)N[C@@H](CCC(=O)O)C(=O)N[C@@H](CO)C(=O)O)[C@@H](C)O)C(C)C)[C@@H](C)CC)C(C)C)[C@@H](C)CC [Cathelicidin-1]
- survival rate ([5]; low concentration (10 μg/ml)): 25%
- survival rate ([5]; moderate concentration (printed 10 μg/ml)): 12%
